Assay results from US12599548B2, “Method of treating oxidative stress in skin and compositions therefor” (The Procter & Gamble Company, priority 2020, dated 2026).

Test system: Keratinocytes (H-tert-keratinocytes) subjected to oxidative stress
Assay: Oxidative Stress Test (cellular ATP level, ATP Glo luminescence)
Format: cell-based, human
Conditions: 90 minutes
Procedure: This test method provides a suitable way to determine the ability of a test agent to improve cellular ATP production in cells subjected to oxidative stress.
Keratinocytes (e.g., H-tert-keratinocytes from University of Texas Southwestern) are cultured in T150 flasks in EpiLife Medium (e.g., catalogue #MEPICFPRF500 from Thermo Fisher Scientific) supplemented with human keratinocyte growth supplement (e.g., catalogue #S-001-5 from Thermo Fisher Scientific) and 1% penicillin/streptomycin (e.g., catalogue #15140-122 from Thermo Fisher Scientific). When the keratinocytes reach ˜70% confluency, they are plated out into 96 well plates (white, clear bottom with 20,000 cells/well). Incubate the plates for 24 hours before the experimental stress and treatment are applied.
The 96 well plate is divided into three groups of samples (wells) as follows: (i) no stress and no treatment is applied, (ii) stress is applied but no treatment and (iii) stress and treatment are both applied. In combination experiments, stress plus 2 treatments may be applied. For the no stress/no treatment samples (i.e., group (i) above), the culture medium is simply refreshed. For the stressed samples (i.e., group (ii) and (iii) above), culture medium containing 400 μM hydrogen peroxide (HOOH) is used to replace the medium. For the treatment samples (i.e., group (iii) above), immediately after adding the HOOH, pipette the treatment(s) into the wells from a 100× master stock. Return the plates to the CO2 incubator for 90 minutes before measuring ATP.
ATP is measured by removing the media from the samples and replacing it with ATP Glo® reagent (available from Promega, Madison, WI), or equivalent, per manufacturer's instructions. After 10 minutes of exposure at room temperature, the luminescence of each sample can be measured using a Perkin Elmer ENVISION brand plate reader or equivalent. Luminescent counts are directly proportional to ATP level in the cells. Record the luminescent counts for each sample.
Replicates of each treatment group are averaged together, and standard p-value calculations are used (2-sided, equal variance) to calculate significance. In cases where 2 treatments appear to synergistically enhance ATP levels, the results of the combined treatments can be compared to the sum of the individual treatments to determine a synergy factor. The synergy factor is calculated as the ratio of the observed effect from the combined treatments divided by the sum of the results from each individual treatment.
The test agents used in the Oxidative Stress Test are limited to relatively low concentrations due to cell toxicity. That is, applying high concentrations of the test agent directly to “unprotected” keratinocytes may kill some of all of the cells, which would obviously skew the test results. […]

`CCCCCCCCC(CO)CCCCCC` (stereo not shown) [Fatty Alcohol, hexyldecanol] was tested, and the “Measured ATP level” value (Fatty Alcohol 0.2 ppm, 400 μM hydrogen peroxide) was 368.3, the “Measured ATP level” value (Fatty Alcohol 1 ppm, keratinocytes stressed with 400 μM hydrogen peroxide, luminescent counts) was 534.3 and the “Measured ATP level” value (Fatty Alcohol 5 ppm, 400 μM hydrogen peroxide) was 708.0. For the same compound, the “Measured ATP level” value (Fatty Alcohol 50 ppm, 400 μM hydrogen peroxide) was 962.3.
